Data taken from ChEMBL document CHEMBL1201862, “PubChem BioAssay data set” (2004).
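Values below derive from 48-hour exposures of cells grown in 96-well plates, with endpoints linearly interpolated between the two concentrations bracketing the appropriate inhibition level. The concentration for 50% growth inhibition is given as GI50.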 Activity calls are given as the source filed them. No stated cut-off is given here; in the data, active = GI50 up to about 1.1 µM and inactive = higher.

What was measured:
Assay in all cases: inhibition of tumour cell growth, NCI panel, 48 h
MDA-N = system: MDA-N
NCI-H226 = system: NCI-H226
CCRF-CEM = system: CCRF-CEM
Malme-3M = system: Malme-3M
SF-539 = system: SF-539
RXF 393 = system: RXF 393
KM12 = system: KM12
SN12C = system: SN12C
HCT-15 = system: HCT-15
MDA-MB-435 = system: MDA-MB-435
LOX IMVI = system: LOX IMVI
NCI-H522 = system: NCI-H522
SK-OV-3 = system: SK-OV-3
PC-3 = system: PC-3
HCT-116 = system: HCT-116
MDA-MB-231 = system: MDA-MB-231
RPMI-8226 = system: RPMI-8226
DU-145 = system: DU-145
SNB-19 = system: SNB-19

Row | Structure (SMILES) | GI50 (MDA-N) | GI50 (NCI-H226) | GI50 (CCRF-CEM) | GI50 (Malme-3M) | GI50 (SF-539) | GI50 (RXF 393) | GI50 (KM12) | GI50 (SN12C) | GI50 (HCT-15) [µM] | GI50 (MDA-MB-435) | GI50 (LOX IMVI) | GI50 (NCI-H522) | GI50 (SK-OV-3) | GI50 (PC-3) | GI50 (HCT-116) | GI50 (MDA-MB-231) | GI50 (RPMI-8226) | GI50 (DU-145) | GI50 (SNB-19)
1 | Cc1cn2c(/C=N/NC(=N)N)c(-c3ccc(Cl)c([N+](=O)[O-])c3)nc2s1 | 0.857 µM (active) | 1.89 µM (inactive) | 0.267 µM (active) | 1.83 µM (inactive) | 1.73 µM (inactive) | 0.59 µM (active) | 0.387 µM (active) | 0.705 µM (active) | 1.7 | 0.611 µM (active) | 0.409 µM (active) | 0.16 µM (active) | 1.76 µM (inactive) | 1.58 µM (inactive) | 0.207 µM (active) | 1.13 µM (inactive) | 0.904 µM (active) | 1.79 µM (inactive) | –
2 | CCc1nc(Cl)nc(Cl)c1Cl | 1.77 µM (inactive) | 6.5 µM (inactive) | 0.177 µM (active) | 0.445 µM (active) | 3.36 µM (inactive) | 1.74 µM (inactive) | 3.48 µM (inactive) | 2.22 µM (inactive) | 0.318 | 1.06 µM (active) | 0.0826 µM (active) | 0.0494 µM (active) | 6.41 µM (inactive) | 1.26 µM (inactive) | 0.948 µM (active) | 1.63 µM (inactive) | 0.0116 µM (active) | 9.06 µM (inactive) | 3.59 µM (inactive)
3 | COc1ccc(/C=C2\CC3C4CC=C5C[C@@H](O)CC[C@]5(C)C4CC[C@]3(C)C2=O)cc1OC (some centres not stated) | 42.2 µM (inactive) | 29.4 µM (inactive) | 20.7 µM (inactive) | 27.2 µM (inactive) | 57.8 µM (inactive) | 34 µM (inactive) | 32.8 µM (inactive) | 23.1 µM (inactive) | 34 | 24.3 µM (inactive) | 30.8 µM (inactive) | 17.2 µM (inactive) | 41.6 µM (inactive) | 25.9 µM (inactive) | 24 µM (inactive) | 25.8 µM (inactive) | 10.2 µM (inactive) | 27.5 µM (inactive) | 62.4 µM (inactive)
4 | CCOC(=O)C(=[N+]=[N-])C(=O)C[N+]12CCN(CC1)CC2 | > 100 µM (inactive) | > 100 µM (inactive) | > 100 µM (inactive) | > 100 µM (inactive) | – | > 100 µM (inactive) | > 100 µM (inactive) | > 100 µM (inactive) | > 100 | > 100 µM (inactive) | > 100 µM (inactive) | > 100 µM (inactive) | > 100 µM (inactive) | > 100 µM (inactive) | > 100 µM (inactive) | > 100 µM (inactive) | > 100 µM (inactive) | > 100 µM (inactive) | > 100 µM (inactive)
5 | CSc1ncc2c(n1)-c1ccccc1OC2 | 57.1 µM (inactive) | 67 µM (inactive) | 59.2 µM (inactive) | – | 37.7 µM (inactive) | 41.5 µM (inactive) | > 100 µM (inactive) | 39.7 µM (inactive) | 51.2 | 56.4 µM (inactive) | 37.7 µM (inactive) | 44.5 µM (inactive) | > 100 µM (inactive) | 56.4 µM (inactive) | 70.8 µM (inactive) | 16.7 µM (inactive) | > 100 µM (inactive) | 39.4 µM (inactive) | 75.9 µM (inactive)
6 | COc1ccccc1C[C@@H]1OC2(C=CC(=O)C=C2)O[C@H]1Cc1ccccc1OC | 6 µM (inactive) | 8.47 µM (inactive) | 3.33 µM (inactive) | 9.71 µM (inactive) | 8.75 µM (inactive) | 1.16 µM (inactive) | 8.69 µM (inactive) | 9.64 µM (inactive) | 5.21 | 14.3 µM (inactive) | 6.14 µM (inactive) | – | 11.4 µM (inactive) | 8.69 µM (inactive) | 1.09 µM (active) | 13.8 µM (inactive) | 1.71 µM (inactive) | 18.4 µM (inactive) | 9.95 µM (inactive)
7 | O=P1(N(CCCl)CCCl)Oc2ccc(Cl)cc2C(C(Cl)(Cl)Cl)c2cc(Cl)ccc2O1 (configuration not stated) | 16.2 µM (inactive) | 17.8 µM (inactive) | 5.37 µM (inactive) | – | 14.8 µM (inactive) | 12.7 µM (inactive) | 13.1 µM (inactive) | 16.6 µM (inactive) | 9.57 | 18.5 µM (inactive) | 15.2 µM (inactive) | 8.59 µM (inactive) | 22.5 µM (inactive) | 4.38 µM (inactive) | 4.55 µM (inactive) | 18.6 µM (inactive) | 3.77 µM (inactive) | 29.1 µM (inactive) | –
8 | C=C1C(=O)O[C@H]2[C@H]3O[C@@H](C[C@@H]12)[C@](C)(O)CCCC(C)=CCC[C@H]3C | 16.1 µM (inactive) | 18.1 µM (inactive) | 0.807 µM (active) | – | 10.2 µM (inactive) | 4.91 µM (inactive) | 14.1 µM (inactive) | 11.9 µM (inactive) | 7.35 | 3.86 µM (inactive) | 14.3 µM (inactive) | 4.36 µM (inactive) | 19 µM (inactive) | 12.2 µM (inactive) | 13.6 µM (inactive) | 11.7 µM (inactive) | 3.17 µM (inactive) | 13.1 µM (inactive) | 16.9 µM (inactive)
9 | O=C(CCl)N1CCCCC1C1(c2cc3ccccc3[nH]2)OCCO1 (configuration not stated) | 2.34 µM (inactive) | 6.53 µM (inactive) | 0.281 µM (active) | 4.47 µM (inactive) | 1.65 µM (inactive) | 3.8 µM (inactive) | 1.77 µM (inactive) | 2.25 µM (inactive) | 4.82 | 3.36 µM (inactive) | 0.0349 µM (active) | 0.194 µM (active) | 5.78 µM (inactive) | 2.98 µM (inactive) | 2.84 µM (inactive) | 2.69 µM (inactive) | 2.12 µM (inactive) | 5.11 µM (inactive) | 10.6 µM (inactive)
10 | O=c1c(Sc2ncccn2)c(Sc2ncccn2)cnn1CCl | 2.17 µM (inactive) | 28.1 µM (inactive) | 0.295 µM (active) | 2.05 µM (inactive) | 1.52 µM (inactive) | 1.5 µM (inactive) | 14.7 µM (inactive) | 3.79 µM (inactive) | 3.02 | 1.77 µM (inactive) | 2.01 µM (inactive) | 0.665 µM (active) | 11.1 µM (inactive) | 2.48 µM (inactive) | 1.85 µM (inactive) | 6.98 µM (inactive) | 1.67 µM (inactive) | 2.64 µM (inactive) | 17 µM (inactive)
11 | CCN(CC)CCO/N=C1\CC[C@H]2[C@@H]3CCc4cc(OC)ccc4[C@H]3CC[C@]12C | 1.75 µM (inactive) | 1.88 µM (inactive) | 1.22 µM (inactive) | 1.82 µM (inactive) | 1.97 µM (inactive) | 1.6 µM (inactive) | 2.01 µM (inactive) | 3.03 µM (inactive) | 0.489 | 0.632 µM (active) | 0.789 µM (active) | 2.52 µM (inactive) | – | 2.64 µM (inactive) | 1.44 µM (inactive) | 3.37 µM (inactive) | 1.67 µM (inactive) | 4.76 µM (inactive) | 8.38 µM (inactive)
12 | C=CC(C)(C)c1cc([C@@H]2COc3cc(O)ccc3C2=O)c(O)c(O)c1OC | 22.2 µM (inactive) | 39.3 µM (inactive) | 41.7 µM (inactive) | 30.5 µM (inactive) | 24.9 µM (inactive) | 4.85 µM (inactive) | 19.8 µM (inactive) | 17.6 µM (inactive) | 16.5 | 19.3 µM (inactive) | 16.2 µM (inactive) | 17 µM (inactive) | 29.1 µM (inactive) | 18.7 µM (inactive) | 16.9 µM (inactive) | 25.2 µM (inactive) | – | 20.7 µM (inactive) | 23.5 µM (inactive)
13 | Cc1nc(OCc2ccccc2)c2ncn(CCO)c2n1 | > 100 µM (inactive) | > 100 µM (inactive) | > 100 µM (inactive) | – | > 100 µM (inactive) | > 100 µM (inactive) | > 100 µM (inactive) | > 100 µM (inactive) | – | > 100 µM (inactive) | > 100 µM (inactive) | > 100 µM (inactive) | > 100 µM (inactive) | > 100 µM (inactive) | > 100 µM (inactive) | > 100 µM (inactive) | > 100 µM (inactive) | > 100 µM (inactive) | > 100 µM (inactive)
14 | O=c1oc2c(ccc3c(O)cccc32)c2c1CCCC2 | > 100 µM (inactive) | > 100 µM (inactive) | > 100 µM (inactive) | 68.9 µM (inactive) | 22.2 µM (inactive) | 14.5 µM (inactive) | > 100 µM (inactive) | > 100 µM (inactive) | – | > 100 µM (inactive) | 16.7 µM (inactive) | 40 µM (inactive) | – | > 100 µM (inactive) | > 100 µM (inactive) | 17.4 µM (inactive) | > 100 µM (inactive) | > 100 µM (inactive) | 27.7 µM (inactive)
15 | FC(F)(F)c1ccc2c(c1)nc(Cc1ccc(Cl)c(Cl)c1)n2CC1CCCN2CCCCC12 (configuration not stated) | 18.2 µM (inactive) | 26.5 µM (inactive) | – | 13.6 µM (inactive) | 18.9 µM (inactive) | 23.6 µM (inactive) | 24.4 µM (inactive) | 20.3 µM (inactive) | 30.8 | 30.4 µM (inactive) | 16.3 µM (inactive) | 14.2 µM (inactive) | 31.3 µM (inactive) | 30.5 µM (inactive) | 14.8 µM (inactive) | 15.3 µM (inactive) | 57 µM (inactive) | 50.6 µM (inactive) | 18.9 µM (inactive)
16 | CSCC[C@H]1C(=O)N=C(N)N1C(=O)OCc1ccccc1 | 28.9 µM (inactive) | 30 µM (inactive) | – | 33.3 µM (inactive) | – | 17.3 µM (inactive) | 42.9 µM (inactive) | 31 µM (inactive) | 28.6 | 34 µM (inactive) | 24.5 µM (inactive) | 19.7 µM (inactive) | – | 50.4 µM (inactive) | 17.6 µM (inactive) | 66.5 µM (inactive) | 60 µM (inactive) | > 100 µM (inactive) | > 100 µM (inactive)
